Experimental data: publication PMC5761213 (Journal of Pharmaceutical Analysis, 2014)
Like-named read-outs stand apart in the source and are kept apart here.

How the values were obtained:
CYP1A2 = target: T1, CYP1A2 (Homo sapiens, UniProt P05177); experiment: Effect of DMSO on CYP activity in human liver microsomes; format: in vitro ADME
T1 sequence (P05177 1-516): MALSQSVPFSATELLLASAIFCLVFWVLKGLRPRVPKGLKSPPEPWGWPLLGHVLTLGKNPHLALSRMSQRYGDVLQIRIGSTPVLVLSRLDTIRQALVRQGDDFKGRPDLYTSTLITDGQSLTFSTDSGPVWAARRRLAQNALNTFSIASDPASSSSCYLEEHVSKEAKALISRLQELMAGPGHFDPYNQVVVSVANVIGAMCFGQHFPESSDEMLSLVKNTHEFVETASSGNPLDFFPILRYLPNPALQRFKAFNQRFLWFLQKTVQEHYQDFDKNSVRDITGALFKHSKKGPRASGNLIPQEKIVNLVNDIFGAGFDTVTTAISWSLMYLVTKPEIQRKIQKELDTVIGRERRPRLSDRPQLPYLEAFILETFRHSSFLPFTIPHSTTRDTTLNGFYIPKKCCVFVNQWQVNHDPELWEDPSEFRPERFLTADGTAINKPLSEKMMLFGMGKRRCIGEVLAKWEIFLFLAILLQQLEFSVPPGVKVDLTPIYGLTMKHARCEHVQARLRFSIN

CYP3A4 = CYP3A4 (Homo sapiens, UniProt P08684); experiment: as above; format: in vitro ADME; settings: for activity loss: percent decrease of metabolite formation
Sequence of CYP3A4 (P08684 whole entry): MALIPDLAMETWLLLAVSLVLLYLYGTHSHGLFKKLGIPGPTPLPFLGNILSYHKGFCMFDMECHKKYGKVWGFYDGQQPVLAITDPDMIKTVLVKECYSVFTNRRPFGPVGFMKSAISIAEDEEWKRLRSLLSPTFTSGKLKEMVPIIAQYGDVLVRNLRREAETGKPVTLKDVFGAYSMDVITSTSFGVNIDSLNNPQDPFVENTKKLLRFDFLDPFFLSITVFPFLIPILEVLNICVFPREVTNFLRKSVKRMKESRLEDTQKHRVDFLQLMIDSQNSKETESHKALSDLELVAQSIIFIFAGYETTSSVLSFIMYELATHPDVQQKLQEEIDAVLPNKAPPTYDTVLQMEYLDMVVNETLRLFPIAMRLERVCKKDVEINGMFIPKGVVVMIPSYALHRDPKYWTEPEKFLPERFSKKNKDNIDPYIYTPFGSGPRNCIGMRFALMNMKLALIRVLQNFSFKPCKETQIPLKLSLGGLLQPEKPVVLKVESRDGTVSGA

CYP2C8 = target: T2, CYP2C8 (Homo sapiens, UniProt P10632); experiment: as above; format: in vitro ADME
T2 sequence (P10632 1-490): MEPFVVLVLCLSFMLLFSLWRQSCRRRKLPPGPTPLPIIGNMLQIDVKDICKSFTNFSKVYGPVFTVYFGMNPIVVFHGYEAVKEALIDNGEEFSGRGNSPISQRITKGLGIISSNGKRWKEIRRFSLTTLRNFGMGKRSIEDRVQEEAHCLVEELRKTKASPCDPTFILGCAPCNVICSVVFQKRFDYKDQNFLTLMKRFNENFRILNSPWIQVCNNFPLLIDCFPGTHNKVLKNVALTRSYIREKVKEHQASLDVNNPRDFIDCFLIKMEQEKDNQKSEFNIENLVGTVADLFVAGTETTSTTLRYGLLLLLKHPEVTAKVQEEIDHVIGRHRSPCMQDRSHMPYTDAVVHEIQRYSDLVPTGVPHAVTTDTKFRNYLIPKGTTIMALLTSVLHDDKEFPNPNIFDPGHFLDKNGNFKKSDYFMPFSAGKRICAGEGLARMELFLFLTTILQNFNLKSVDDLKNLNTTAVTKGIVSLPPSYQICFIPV

CYP2D6 = CYP2D6 (Homo sapiens, UniProt P10635); experiment: as above; format: in vitro ADME
Sequence of CYP2D6 (P10635 whole entry): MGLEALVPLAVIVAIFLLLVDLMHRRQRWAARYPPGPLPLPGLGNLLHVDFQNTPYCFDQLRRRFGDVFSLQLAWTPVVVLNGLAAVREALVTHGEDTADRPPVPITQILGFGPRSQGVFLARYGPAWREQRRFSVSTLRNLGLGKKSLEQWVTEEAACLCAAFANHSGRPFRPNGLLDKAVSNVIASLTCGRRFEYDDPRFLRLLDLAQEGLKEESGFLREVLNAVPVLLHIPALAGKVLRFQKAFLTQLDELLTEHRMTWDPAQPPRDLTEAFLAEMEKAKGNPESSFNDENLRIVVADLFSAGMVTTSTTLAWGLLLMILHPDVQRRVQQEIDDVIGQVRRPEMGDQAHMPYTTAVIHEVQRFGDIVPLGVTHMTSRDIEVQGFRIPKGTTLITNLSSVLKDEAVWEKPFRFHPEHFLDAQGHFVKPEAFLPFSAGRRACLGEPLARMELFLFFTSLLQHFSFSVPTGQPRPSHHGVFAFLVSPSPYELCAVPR

CYP2C19 [1] = target: T3, CYP2C19 (Homo sapiens, UniProt P33261); experiment: as above; format: in vitro ADME; settings: for activity loss: percent decrease of metabolite formation
T3 sequence (P33261 whole entry): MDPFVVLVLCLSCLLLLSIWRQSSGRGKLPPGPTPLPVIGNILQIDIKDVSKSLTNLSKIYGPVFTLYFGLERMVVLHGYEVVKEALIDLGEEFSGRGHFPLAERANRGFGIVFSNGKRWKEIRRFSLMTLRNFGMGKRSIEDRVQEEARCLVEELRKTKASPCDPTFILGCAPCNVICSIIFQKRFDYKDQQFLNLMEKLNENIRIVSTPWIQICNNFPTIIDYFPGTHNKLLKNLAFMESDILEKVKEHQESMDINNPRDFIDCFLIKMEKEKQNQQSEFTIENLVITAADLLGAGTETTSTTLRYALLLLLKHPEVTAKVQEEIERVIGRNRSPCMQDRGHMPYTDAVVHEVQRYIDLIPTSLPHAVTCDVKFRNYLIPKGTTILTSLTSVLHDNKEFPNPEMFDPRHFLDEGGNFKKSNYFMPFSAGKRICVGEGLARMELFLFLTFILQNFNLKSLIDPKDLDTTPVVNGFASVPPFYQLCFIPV

CYP2C19 [2] = target: T3, CYP2C19; settings: literature value, cited from earlier work
CYP2C19 [3] = target: T3, CYP2C19; experiment: CYP inhibition assay in human liver microsomes, S-mephenytoin probe; format: in vitro ADME; settings: IC50 calculated without SC, Single, pooled human liver microsomes, analyte-to-IS peak area ratio
[4] = 0.5% DMSO, concentration set for the cocktail assay

Row | IC50 (CYP2C19 [3]) [µM] | SMILES | reduction of metabolite formation (CYP1A2; 0.1% DMSO) | CYP activity reduced by (CYP1A2; [4]) [%] | effect of DMSO on CYP activity (CYP1A2; DMSO up to 1%) | reduction of metabolite formation (CYP3A4; 0.1% DMSO) | activity loss (CYP3A4; 0.5% DMSO (v/v)) [%] | activity loss (CYP3A4; 1% DMSO (v/v)) [%] | reduction of metabolite formation (CYP2C8; 0.1% DMSO) | CYP activity reduced by (CYP2C8; [4]) [%] | effect of DMSO on CYP activity (CYP2C8; DMSO up to 1%) | reduction of metabolite formation (CYP2D6; 0.1% DMSO) | CYP activity reduced by (CYP2D6; [4]) [%] | activity loss (CYP2D6; 1% DMSO (v/v), percent decrease of metabolite formation) [%] | reduction of metabolite formation (CYP2C19 [1]; 0.1% DMSO) | activity loss (CYP2C19 [1]; 0.5% DMSO (v/v)) [%] | CYP activity reduced by (CYP2C19 [1]; [4]) [%] | activity loss (CYP2C19 [1]; 1% DMSO (v/v)) [%] | IC50 (CYP2C19 [2]; read-out: reported IC50) [µM] | Ki (CYP2C19 [2]; read-out: reported Ki) [µM]
1 |  | C[S+](C)[O-] [DMSO] | no significant reduction | 8 | not significantly affected | no significant reduction | 24.4 | 52.7 | no significant reduction | 11 | not significantly affected | no significant reduction | 12 | 27.8 | no significant reduction | 44.8 | 44 | 55.0 |  | 
2 | 7.19 | C=C(C)[C@@H]1CCC2=CC(=O)C[C@@H](C)[C@]2(C)C1 [Nootkatone] |  |  |  |  |  |  |  |  |  |  |  |  |  |  |  |  | 9.56 | 0.5
